pIC50: −log10 of the molar value.

As usually defined, the pIC50 is the negative decadic logarithm of the IC50, by convention in mol/L.

For one assay, the target named is T1, LRRK2 WT enzyme (Homo sapiens, UniProt Q5S007).
T1 construct: purchased Thermo Fisher Scientific PR8604B
Kind of assay: LRRK2 wild type kinase inhibition assay (ADP-Glo). Type of assay: biochemical. As to conditions: Table 2, class symbols; read-out: Enzyme activity against LRRK2 WT (IC50). As to the method: IC50 experiments were performed for inventive compounds. An exemplary kit to perform this assay includes the Adapta™ Screening Protocol and Assay Conditions by Invitrogen™ (Fisher Scientific™, Catalog No. PV5099).
All LRRK2 kinase inhibition assays were conducted by using Promega ADP-Glo™ Kinase assay systems (Catalog number; V4475). Inhibitors were tested with 12 concentrations over a 5-fold serial dilution series (50 μM, 10 μM, 2 μM, 400 nM, 80 nM, 16 nM, 3.2 nM, […]) and PF06447475 as positive control. For the LRRK2 wild type (WT) enzyme assay, each inhibitor was mixed with 0.2 μg/μL of substrate (LRRKtide, SignalChem, Richmond, BC, Canada), […] (Invitrogen™, Carlsbad, CA), 24 ng of LRRK2 WT enzyme (Thermo Fisher Scientific, PR8604B) in 384-well plate. For LRRK G2019S, each compound was mixed with 0.2 μg/μL of substrate, […], 16 ng of LRRK2 G2019S enzyme (SignalChem, L10-12GG). All samples were diluted with kinase reaction buffer (40 mmol/L TrisHCl, 10 mmol/L MgCl2, and 0.1 μg/μL BSA (bovine serum albumin)). After 2 hours at 25° C., ADP-Glo™ (Promega, Madison, WI) reagent was added and the samples were incubated at rt for 40 min. Finally, Kinase Detection Reagent was added and the resulting mixtures were allowed to react at rt for 10 min. Luminescence signals were detected using Synergy™ Neo2 microplate reader (Bio-Tek). Compound inhibition curve was fitted using Graphpad Prism 8.0 software.
On the technique in general: ADP-Glo first removes unused ATP, then detects ADP through luciferase.

For another assay, the system named is FLT3(ITD, D835V). Kind of assay: KinomeScan profiling. It is filed as binding. As to conditions: 1 μM. A digest of the protocol:
(§1)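 At 1 μM in DMSO, compounds are run through a broad 468-member kinase panel. The luminescent read-out is normalised so that vehicle gives 100% and a positive control gives 0%; any kinase falling below 35% is treated as a target.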

In the next assay the target is T2, GRK1 (Homo sapiens, UniProt Q15835).
T2 sequence (Q15835 1-563): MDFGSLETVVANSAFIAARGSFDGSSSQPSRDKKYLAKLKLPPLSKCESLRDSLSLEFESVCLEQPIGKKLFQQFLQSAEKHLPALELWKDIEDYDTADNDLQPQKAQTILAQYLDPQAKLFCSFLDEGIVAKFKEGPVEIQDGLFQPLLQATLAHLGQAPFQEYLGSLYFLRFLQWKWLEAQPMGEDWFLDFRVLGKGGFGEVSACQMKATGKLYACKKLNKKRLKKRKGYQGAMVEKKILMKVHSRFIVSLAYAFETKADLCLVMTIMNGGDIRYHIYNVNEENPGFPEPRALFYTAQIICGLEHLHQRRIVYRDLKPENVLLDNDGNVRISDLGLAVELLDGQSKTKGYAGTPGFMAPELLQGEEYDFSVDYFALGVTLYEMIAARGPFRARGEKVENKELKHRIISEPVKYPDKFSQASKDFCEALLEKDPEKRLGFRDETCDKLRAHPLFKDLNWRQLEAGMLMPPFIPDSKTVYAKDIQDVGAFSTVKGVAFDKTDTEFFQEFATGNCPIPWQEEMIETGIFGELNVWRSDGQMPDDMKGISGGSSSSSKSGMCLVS
Kind of assay: KinomeScan profiling. Type of assay: binding. Particulars: GRK1, 1 μM; read-out: % control. A digest of the protocol: as §1

Another assay deals with T3, MAP3K15 (Homo sapiens, UniProt Q6ZN16).
T3 sequence (Q6ZN16 1-1313): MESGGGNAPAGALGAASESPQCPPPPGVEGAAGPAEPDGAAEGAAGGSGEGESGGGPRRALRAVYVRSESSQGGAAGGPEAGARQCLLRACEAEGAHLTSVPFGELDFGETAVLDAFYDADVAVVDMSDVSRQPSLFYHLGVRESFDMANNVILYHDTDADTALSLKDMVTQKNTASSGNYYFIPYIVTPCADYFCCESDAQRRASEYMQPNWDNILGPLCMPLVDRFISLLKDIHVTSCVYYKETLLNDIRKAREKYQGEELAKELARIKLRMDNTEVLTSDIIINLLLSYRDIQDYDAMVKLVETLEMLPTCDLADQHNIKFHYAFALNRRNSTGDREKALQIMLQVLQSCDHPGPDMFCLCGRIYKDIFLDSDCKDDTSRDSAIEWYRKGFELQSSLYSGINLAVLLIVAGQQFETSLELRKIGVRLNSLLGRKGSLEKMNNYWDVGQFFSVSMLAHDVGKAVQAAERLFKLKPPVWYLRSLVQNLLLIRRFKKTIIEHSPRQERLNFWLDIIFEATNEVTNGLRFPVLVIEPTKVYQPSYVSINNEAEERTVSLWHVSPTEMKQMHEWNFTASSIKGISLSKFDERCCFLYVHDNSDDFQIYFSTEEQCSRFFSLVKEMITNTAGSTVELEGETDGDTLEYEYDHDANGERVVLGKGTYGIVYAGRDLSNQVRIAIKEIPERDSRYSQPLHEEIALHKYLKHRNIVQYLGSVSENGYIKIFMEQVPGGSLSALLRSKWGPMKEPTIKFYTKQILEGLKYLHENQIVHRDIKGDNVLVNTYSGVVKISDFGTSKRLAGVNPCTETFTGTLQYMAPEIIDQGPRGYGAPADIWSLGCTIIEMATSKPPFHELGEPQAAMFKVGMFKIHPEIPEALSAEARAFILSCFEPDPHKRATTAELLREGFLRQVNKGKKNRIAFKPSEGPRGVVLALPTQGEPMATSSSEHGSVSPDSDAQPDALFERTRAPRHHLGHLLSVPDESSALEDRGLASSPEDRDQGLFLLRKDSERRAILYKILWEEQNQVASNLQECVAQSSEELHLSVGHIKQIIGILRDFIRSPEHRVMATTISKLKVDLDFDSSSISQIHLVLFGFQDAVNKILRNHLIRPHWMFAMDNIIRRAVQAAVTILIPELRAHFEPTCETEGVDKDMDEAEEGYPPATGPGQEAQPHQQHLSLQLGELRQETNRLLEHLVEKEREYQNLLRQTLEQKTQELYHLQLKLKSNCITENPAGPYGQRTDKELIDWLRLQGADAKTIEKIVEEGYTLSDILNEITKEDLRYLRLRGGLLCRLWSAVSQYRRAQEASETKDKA
Kind of assay: KinomeScan profiling. Type of assay: binding. Particulars: MAP3K15, 1 μM; read-out: % control. In short, it runs like this: as §1

T1 sequence (Q5S007 970-2527 limits assumed): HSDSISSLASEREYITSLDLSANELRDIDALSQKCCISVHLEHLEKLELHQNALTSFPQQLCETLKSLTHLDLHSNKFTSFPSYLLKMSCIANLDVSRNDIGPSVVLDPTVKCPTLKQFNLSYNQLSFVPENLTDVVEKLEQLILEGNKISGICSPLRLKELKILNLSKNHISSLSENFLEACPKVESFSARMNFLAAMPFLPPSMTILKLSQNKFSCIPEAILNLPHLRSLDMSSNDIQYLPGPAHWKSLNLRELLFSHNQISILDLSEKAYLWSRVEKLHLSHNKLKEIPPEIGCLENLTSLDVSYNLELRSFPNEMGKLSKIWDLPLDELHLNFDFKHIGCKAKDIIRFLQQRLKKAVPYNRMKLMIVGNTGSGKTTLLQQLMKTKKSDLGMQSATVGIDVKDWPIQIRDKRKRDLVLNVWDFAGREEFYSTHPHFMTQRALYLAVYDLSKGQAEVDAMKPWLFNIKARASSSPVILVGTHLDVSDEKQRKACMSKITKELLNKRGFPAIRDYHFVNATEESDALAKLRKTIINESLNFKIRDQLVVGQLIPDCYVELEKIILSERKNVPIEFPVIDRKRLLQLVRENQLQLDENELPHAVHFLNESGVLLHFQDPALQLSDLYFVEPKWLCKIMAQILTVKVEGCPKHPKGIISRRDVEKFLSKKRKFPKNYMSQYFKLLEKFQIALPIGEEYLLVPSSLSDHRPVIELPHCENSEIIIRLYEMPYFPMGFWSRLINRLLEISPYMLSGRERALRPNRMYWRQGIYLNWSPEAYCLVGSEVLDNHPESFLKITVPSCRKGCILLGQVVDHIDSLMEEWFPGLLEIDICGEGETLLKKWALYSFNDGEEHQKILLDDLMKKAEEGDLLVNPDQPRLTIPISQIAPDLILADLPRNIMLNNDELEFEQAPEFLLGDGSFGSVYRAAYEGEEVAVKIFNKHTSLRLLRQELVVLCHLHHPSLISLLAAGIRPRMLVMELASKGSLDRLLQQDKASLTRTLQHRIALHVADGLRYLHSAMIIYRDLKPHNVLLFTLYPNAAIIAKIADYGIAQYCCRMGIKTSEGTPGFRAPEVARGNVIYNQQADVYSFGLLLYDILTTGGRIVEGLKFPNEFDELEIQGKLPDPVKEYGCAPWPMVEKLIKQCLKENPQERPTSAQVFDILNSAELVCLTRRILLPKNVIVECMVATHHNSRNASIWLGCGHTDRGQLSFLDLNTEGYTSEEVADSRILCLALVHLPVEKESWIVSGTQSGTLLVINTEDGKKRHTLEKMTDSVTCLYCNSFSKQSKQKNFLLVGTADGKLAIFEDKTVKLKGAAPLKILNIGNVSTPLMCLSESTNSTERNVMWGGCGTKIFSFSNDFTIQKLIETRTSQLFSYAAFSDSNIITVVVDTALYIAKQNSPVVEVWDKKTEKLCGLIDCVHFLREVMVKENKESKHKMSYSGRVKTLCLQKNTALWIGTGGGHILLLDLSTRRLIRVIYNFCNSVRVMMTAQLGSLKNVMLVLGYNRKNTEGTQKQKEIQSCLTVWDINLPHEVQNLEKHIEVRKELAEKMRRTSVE

Turning to `CNc1c(-c2ccc(C(=O)N3CCC(N4CCOCC4)CC3)cc2)cnc2[nH]cc(Cl)c12` [Compound 96, (4-(3-chloro-4-(methylamino)-1H-pyrrolo[2,3-b]pyridin-5-yl)phenyl)(4-morpholinopiperidin-1-yl)methanone], at LRRK2 WT enzyme, the pIC50 was 7.00 to 8.00. Besides, in the assay on FLT3(ITD, D835V), the “% control” value was determined as 3.6%. Besides, the remaining binding at 1 µM on GRK1 is 63%; at MAP3K15 it was 1.8%.

In the case of `O=C(c1ccc(-c2cnc3[nH]cc(Cl)c3c2NC2CCCC2)cc1)N1CCC(N2CCOCC2)CC1` [Compound 101, (4-(3-chloro-4-(cyclopentylamino)-1H-pyrrolo[2,3-b]pyridin-5-yl)phenyl)(4-morpholinopiperidin-1-yl)methanone], the “% control” value in the assay with FLT3(ITD, D835V) is given as 55%. For the same compound, the remaining binding at 1 µM at GRK1 came out at 84%; on MAP3K15 it was 100%.

Turning to `CNc1c(-c2cnn([C@H]3CCN(C(C)=O)C[C@@H]3F)c2)cnc2[nH]cc(Cl)c12` [Compound 77, 1-((3S,4S)-4-(4-(3-chloro-4-(methylamino)-1H-pyrrolo[2,3-b]pyridin-5-yl)-1H-pyrazol-1-yl)-3-fluoropiperidin-1-yl)ethan-1-one], the negative logarithm of the IC50 (pIC50) at LRRK2 WT enzyme was 7.00 to 8.00. Moreover, the figures for the remaining binding at 1 µM on GRK1 and on MAP3K15 were 60% and 1.4%, respectively.
